According to patent US20170266237A1, “Generation of Brown Adipose Tissue (BAT) from Mesenchymal Cells” (National University of Singapore, priority 2012, published 2017):

Tests used:
Type in all cases: cell-based, human
[1] = tested on: adipogenically induced mesenchymal stem cells; experiment: Nile Red adherent cytometry of cytoplasmic lipid accumulation / lipolysis; conditions: for lipolysis after isoproterenol (emptying of lipid droplets): 16 hrs of 5 μM isoproterenol, white and brown adipogenically induced MSCs
Experimental: b) Adipogenic Induction of Mesenchymal Stem Cells (MSC). MSCs were seeded at an initial density of about 10.5×10^4 cells/cm^2 in well plates and grown to confluence. Adipogenic differentiation was induced via three cycles of 4 days of induction, followed by 3 days of maintenance. The basal media used in the differentiation process composed of high glucose Dulbecco's modified Eagle's medium (HG DMEM, Gibco) supplemented with Glutamax, 10% fetal bovine serum, 100 units/ml penicillin and […] streptomycin The standard white adipogenic induction media is supplemented with 3-isobutyl-1methylxanthine (0.5 mM), indomethacin (0.2 mM), dexamethasone (1 μM) and insulin (10 μg/ml). For brown adipocyte differentiation, cells were pre-treated with BMP7 (R&D Systems 354-BP, 125 ng/ml) 3 days prior to induction. The brown adipogenic induction media is supplemented with 3-isobutyl-lmethylxanthine (0.5 mM), indomethacin (0.2 mM), dexamethasone (1 μM), insulin (10 μg/ml), triiodothyronine (1 nM) and Rosiglitazone (1 μM). Basal media alone was used during the maintenance phase. For conditions treated with macromolecular crowding (+MMC), a cocktail of macromolecules (+MMC), consisting of Ficoll 70 (37.5 mg/ml) and Ficoll 400 (25 mg/ml) was added to the basal media (High glucose DMEM, Gibco) throughout the differentiation process (during both induction and maintenance phases).
c) Stimulation with forskolin or isoproterenol. After the 3-week adipogenic differentiation, cells were incubated with 10 μM forskolin (Sigma) or 5 μM isoproterenol (Sigma) for 4 h or 16 h before analysis, to mimic nor-adrenergic stimulation in culture.
d) Nile Red Adherent Cytometry to assess area of cytoplasmic lipid accumulation. After 21 days (corresponding to three complete induction cycles), cell cultures were rinsed with PBS, fixed in 4% formaldehyde (10 min; RT) then co-stained for 30 min with Nile Red (Sigma-Aldrich; 5 μg/ml), for cytoplasmic lipid droplets and 4′,6-diamidino-2-phenylindole (DAPI; 0.5 μg/ml) for nuclear DNA as described previously. Adherent fluorescent cytometry was based on 9 sites per well imaged with a coolSNAP HQ camera attached to a Nikon TE2000 microscope at 2× magnification, covering 83% of total well area. Nile Red was viewed under a rhodamine filter [Ex572 nm/Em630 nm] while DAPI fluorescence was assessed with a DAPI filter [Ex350 nm/Em465 nm]. Measured Nile Red events were thresholded and measured by an image analysis software (MetaMorph 6.3v3). Extent of adipogenic differentiation was quantified by area of Nile Red fluorescence from thresholded events normalized to nuclei count based on detected DAPI fluorescence. End data corresponded to total area of lipid droplets present per well relative to cell number.

[2] = tested on: UCP1 mRNA; experiment: Quantitative PCR of UCP1 mRNA after forskolin stimulation of adipogenically induced MSCs; conditions: adipogenically induced MSCs stimulated with forskolin
Experimental: b) Adipogenic Induction of Mesenchymal Stem Cells (MSC). MSCs were seeded at an initial density of about 10.5×10^4 cells/cm^2 in well plates and grown to confluence. Adipogenic differentiation was induced via three cycles of 4 days of induction, followed by 3 days of maintenance. The basal media used in the differentiation process composed of high glucose Dulbecco's modified Eagle's medium (HG DMEM, Gibco) supplemented with Glutamax, 10% fetal bovine serum, 100 units/ml penicillin and […] streptomycin The standard white adipogenic induction media is supplemented with 3-isobutyl-1methylxanthine (0.5 mM), indomethacin (0.2 mM), dexamethasone (1 μM) and insulin (10 μg/ml). For brown adipocyte differentiation, cells were pre-treated with BMP7 (R&D Systems 354-BP, 125 ng/ml) 3 days prior to induction. […]
(§1) e) Quantitative PCR to assess expression of pan-adipocyte and brown adipocyte genes. […] Real time quantitative polymerase chain reactions (RT-PCR) were performed and monitored on a real-time PCR instrument (Stratagene) using Maxima™ SYBR Green/ROX qPCR Master Mix (K0222, Fermentas). […] Relative gene expression levels were determined using the ΔΔ-Ct method with the geometric mean of human TATA-box binding protein (TBP) and ribosomal phosphoprotein P0 (RPLP0) levels as an endogenous control.

[3] = tested on: UCP1 mRNA; experiment: Quantitative PCR of UCP1 mRNA expression in adipogenically induced MSCs; conditions: 3-week adipogenic induction of MSCs
Experimental: a) Mesenchymal Stem Cell Culture. Human bone-marrow derived mesenchymal stem cells (MSCs) were obtained commercially (Cambrex) at passage 2 (p2) and cultured in a basic culture medium composed of low glucose Dulbecco's modified Eagle's medium (LG DMEM, Gibco) supplemented with Glutamax, 10% fetal bovine serum, 100 units/ml penicillin and […] streptomycin. Cells were maintained at 37° C. in a humidified atmosphere of 5% CO2, with medium change twice per week. To prevent spontaneous differentiation, cells were maintained at subconfluent levels prior to being detached using TrypLE™ Express (Gibco), passaged at 1:3 and cultured to generate subsequent passages. Directed differentiation was carried out with cells between passage 6 (p6) and 8 (p8).
b) Adipogenic Induction of Mesenchymal Stem Cells (MSC). […]
as §1

CC(C)NCC(O)c1ccc(O)c(O)c1 (stereo not drawn) [isoproterenol]
lipolysis after isoproterenol (emptying of lipid droplets) [1]: leads to emptying of lipid droplets | lipolysis after isoproterenol (emptying of lipid droplets) ([1]; listed as Isoproterenol): stronger lipolytic effect on adipocytes that had been differentiated under a BAT induction protocol

C=C[C@@]1(C)CC(=O)[C@]2(O)[C@@]3(C)[C@@H](O)CCC(C)(C)[C@@H]3[C@H](O)[C@H](OC(C)=O)[C@@]2(C)O1 [forskolin]
additional UCP1 mRNA upregulation on forskolin stimulation [2]: 10 fold | reduction of Nile Red positive area (factor) ([1]; brown induction protocol, 16 hrs after forskolin stimulus): 2.14 | reduction of hypothetical triglyceride volume (factor) ([1]; modeled as sphere, brown induced MSCs under crowding, after forskolin treatment): 3

B1: BMP7: bone morphogenetic protein, R&D Systems 354-BP, 125 ng/ml pre-treatment 3 days prior to induction (protein, UniProt P18075 293-431, looked up)
Bone morphogenetic protein 7: STGSKQRSQNRSKTPKNQEALRMANVAENSSSDQRQACKKHELYVSFRDLGWQDWIIAPEGYAAYYCEGECAFPLNSYMNATNHAIVQTLVHFINPETVPKPCCAPTQLNAISVLYFDDSSNVILKKYRNMVVRACGCH
effect on UCP1 mRNA expression (in words) [3]: only modestly increases
